The source of these data is US20060095979A1, “Transgenic mice containing CLCN4 chloride ion channel gene disruptions” (priority 2001, published 2006).

The experiment has as its system mouse. Kind of experiment: Metrazol Test (tail vein infusion, seizure susceptibility). The class given is in vivo. The note with it: for Metrazol Dose Required for First Twitch: Dose at First Twitch: about 5 mg/ml infused through tail vein at about 0.375 ml/min. The protocol: A metrazol administration test can be used to screen animals for varying susceptibilities to seizures or similar events. For example, a 5 mg/ml solution of metrazol can be infused through the tail vein of a mouse at a rate of, e.g., approximately 0.375 ml/min. The infusion will cause all mice to experience seizures, followed by death. Those mice that enter the seizure stage the soonest are believed to be more prone to seizures.
To screen for phenotypes involving changes in seizure susceptibility, the Metrazol Test was be used. About 5 mg/ml of Metrazol was infused through the tail vein of the mouse at a constant rate of about 0.375 ml/min. The infusion caused all mice to experience seizures. Those mice who entered the seizure stage the quickest were thought to be more prone to seizures in general.
The Metrazol test can also be used to screen for phenotypes related to epilepsy. Seven to ten adult wild-type and homozygote males were used. A fresh solution of about 5 mg/ml pentylenetetrazole in approximately 0.9% NaCl was prepared prior to testing. Mice were weighed and loosely held in a restrainer. After exposure to a heat lamp to dilate the tail vein, mice were continuously infused with the pentylenetetrazole solution using a syringe pump set at a constant flow rate. The following stages were recorded: first twitch (sometimes accompanied by a squeak), beginning of the tonic/clonic seizure, tonic extension and survival time. The dose required for each phase was determined and the latency to each phase was determined between genotypes. Alterations in any stage may indicate an overall imbalance in excitatory or inhibitory neurotransmitter levels.

For the compound `C1CCc2nnnn2CC1` [Metrazol, pentylenetetrazole], the “dose of metrazol to induce the first twitch response, homozygous mutant (−/−) compared to wild-type (+/+) control mice” value (age- and gender-matched mice) is recorded as “higher dose”. Also, the “Metrazol Dose Required for First Twitch: Dose at First Twitch” value is, setting by setting: (homozygous mutant (−/−) CLCN4 male mice) 34.14 mg/kg; (wild-type (+/+) male mice) 28.06 mg/kg.
